Earlier results in patent US20030114534A1, “Pharmaceutical preparation for apthous ulcers” (priority 2001, published 2003).

System: apthous lesions
Details: applied locally, 250 mg. in 10 ml. of water, three times a day

## CN(C)[C@@H]1C(O)=C(C(N)=O)C(=O)[C@@]2(O)C(O)=C3C(=O)c4c(O)ccc(Cl)c4[C@@](C)(O)[C@H]3C[C@@H]12 [Aureomycin]
  analgesic effect lasting: one-half to two
